Tests used:
Glutamate NMDA receptor = test: Binding affinity for N-methyl-D-aspartate glutamate receptor was measured through displacement of [3H]25-6981; assay type: protein-complex assay
[1] = pKa value was determined; assay type: physicochemical
[2] = target: T1, Adrenergic receptor alpha-2 (Rattus norvegicus, UniProt P22086+P19328+P22909); test: Binding affinity towards Alpha-2 adrenergic receptor was measured through displacement of [3H]-RX-821002; assay type: protein assay
T1 sequence (P22086 whole entry): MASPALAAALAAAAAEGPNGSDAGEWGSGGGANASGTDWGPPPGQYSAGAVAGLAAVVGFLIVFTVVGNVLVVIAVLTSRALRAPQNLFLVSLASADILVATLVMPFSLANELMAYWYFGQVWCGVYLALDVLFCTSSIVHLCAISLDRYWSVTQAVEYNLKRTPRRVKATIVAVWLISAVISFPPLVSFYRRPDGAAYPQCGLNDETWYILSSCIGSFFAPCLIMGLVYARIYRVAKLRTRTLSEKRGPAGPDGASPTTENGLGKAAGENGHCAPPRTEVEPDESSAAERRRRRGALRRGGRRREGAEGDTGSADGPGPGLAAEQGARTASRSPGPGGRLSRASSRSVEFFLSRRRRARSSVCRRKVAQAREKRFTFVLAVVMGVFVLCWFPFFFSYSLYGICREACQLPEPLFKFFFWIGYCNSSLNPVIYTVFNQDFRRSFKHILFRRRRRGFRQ
T1 sequence (P19328 whole entry): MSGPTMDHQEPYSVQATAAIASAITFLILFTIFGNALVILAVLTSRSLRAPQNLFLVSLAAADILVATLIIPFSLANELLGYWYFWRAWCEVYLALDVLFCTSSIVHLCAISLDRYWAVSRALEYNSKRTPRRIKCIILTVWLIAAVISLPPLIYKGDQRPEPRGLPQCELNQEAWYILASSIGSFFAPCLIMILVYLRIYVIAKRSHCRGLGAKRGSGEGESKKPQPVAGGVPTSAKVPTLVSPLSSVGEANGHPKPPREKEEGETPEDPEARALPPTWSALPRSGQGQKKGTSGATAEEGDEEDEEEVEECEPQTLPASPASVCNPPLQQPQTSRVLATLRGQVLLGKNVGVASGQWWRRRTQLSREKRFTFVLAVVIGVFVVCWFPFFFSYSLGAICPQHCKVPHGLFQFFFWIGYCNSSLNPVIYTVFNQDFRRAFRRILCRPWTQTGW
T1 sequence (P22909 whole entry): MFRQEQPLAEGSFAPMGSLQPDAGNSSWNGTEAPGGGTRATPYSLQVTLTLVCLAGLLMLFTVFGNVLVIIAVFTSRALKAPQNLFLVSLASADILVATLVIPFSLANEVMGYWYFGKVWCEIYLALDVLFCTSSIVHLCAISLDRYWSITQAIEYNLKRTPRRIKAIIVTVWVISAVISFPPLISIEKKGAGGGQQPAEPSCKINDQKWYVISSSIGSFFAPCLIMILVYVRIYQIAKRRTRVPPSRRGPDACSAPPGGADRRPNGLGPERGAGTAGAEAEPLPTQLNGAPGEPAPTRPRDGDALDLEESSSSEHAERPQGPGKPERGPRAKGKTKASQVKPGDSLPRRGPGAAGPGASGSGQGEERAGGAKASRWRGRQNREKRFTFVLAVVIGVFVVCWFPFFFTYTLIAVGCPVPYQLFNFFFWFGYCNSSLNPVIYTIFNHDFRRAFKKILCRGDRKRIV

[3] = target: T2, Adrenergic receptor alpha-1 (Rattus norvegicus, UniProt P15823+P23944+P43140); test: Binding affinity towards Alpha-1 adrenergic receptor was measured through displacement of [3H]prazosin; assay type: protein assay
T2 sequence (P15823 whole entry): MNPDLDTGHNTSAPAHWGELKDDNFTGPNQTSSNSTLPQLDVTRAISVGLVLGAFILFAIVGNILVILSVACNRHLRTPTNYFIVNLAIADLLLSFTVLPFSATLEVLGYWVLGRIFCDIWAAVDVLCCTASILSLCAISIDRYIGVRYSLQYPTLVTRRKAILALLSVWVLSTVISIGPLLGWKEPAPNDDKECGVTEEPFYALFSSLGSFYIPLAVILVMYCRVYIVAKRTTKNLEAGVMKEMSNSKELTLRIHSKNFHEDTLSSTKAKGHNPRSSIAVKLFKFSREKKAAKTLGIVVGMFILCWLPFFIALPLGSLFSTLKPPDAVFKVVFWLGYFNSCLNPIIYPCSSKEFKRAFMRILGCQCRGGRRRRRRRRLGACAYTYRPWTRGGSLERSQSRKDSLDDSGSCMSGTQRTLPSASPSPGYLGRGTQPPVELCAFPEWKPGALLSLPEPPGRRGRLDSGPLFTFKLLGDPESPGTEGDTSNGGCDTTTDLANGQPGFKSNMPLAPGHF
T2 sequence (P23944 whole entry): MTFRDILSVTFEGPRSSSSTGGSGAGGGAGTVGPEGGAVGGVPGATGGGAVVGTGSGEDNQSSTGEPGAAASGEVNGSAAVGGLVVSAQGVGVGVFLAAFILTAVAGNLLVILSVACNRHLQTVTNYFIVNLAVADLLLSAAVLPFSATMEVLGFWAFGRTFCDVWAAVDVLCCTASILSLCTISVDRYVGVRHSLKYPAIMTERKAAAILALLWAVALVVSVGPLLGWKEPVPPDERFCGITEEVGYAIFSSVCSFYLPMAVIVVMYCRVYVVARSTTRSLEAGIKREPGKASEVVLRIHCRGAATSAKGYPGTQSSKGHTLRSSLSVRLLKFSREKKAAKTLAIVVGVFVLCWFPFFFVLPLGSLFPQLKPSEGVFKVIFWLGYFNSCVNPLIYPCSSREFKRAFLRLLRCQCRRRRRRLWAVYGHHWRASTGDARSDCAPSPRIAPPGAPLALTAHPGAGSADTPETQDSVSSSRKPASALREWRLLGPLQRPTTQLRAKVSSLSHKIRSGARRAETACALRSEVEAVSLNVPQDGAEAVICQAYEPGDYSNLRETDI
T2 sequence (P43140 whole entry): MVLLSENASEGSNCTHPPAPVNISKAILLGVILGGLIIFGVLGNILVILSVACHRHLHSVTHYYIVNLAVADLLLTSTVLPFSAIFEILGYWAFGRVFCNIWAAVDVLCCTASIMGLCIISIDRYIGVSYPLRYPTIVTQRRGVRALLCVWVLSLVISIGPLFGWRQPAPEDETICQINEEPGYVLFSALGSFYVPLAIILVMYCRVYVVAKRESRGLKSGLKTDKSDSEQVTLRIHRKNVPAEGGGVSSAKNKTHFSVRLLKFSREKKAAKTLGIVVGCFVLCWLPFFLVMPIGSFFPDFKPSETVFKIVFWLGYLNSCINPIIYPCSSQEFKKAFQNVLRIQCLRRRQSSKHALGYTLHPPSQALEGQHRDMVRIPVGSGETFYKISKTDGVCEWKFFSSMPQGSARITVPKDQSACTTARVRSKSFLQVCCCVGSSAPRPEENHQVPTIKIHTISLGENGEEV

Rattus norvegicus = species on record: Rattus norvegicus; test: Effect on K+ channels in rat cortical neurones at 10 uM; assay type: functional

Compound | Ki (Glutamate NMDA receptor) [nM] | further results
CCCCCNC1=NCCN1OCc1ccccc1 |  | pKa [1]: 10.1; Ki [2]: 30000 nM; Ki [3]: 5500 nM; Effect (Rattus norvegicus): 48%
CCCCCNC1=NCCN1OCCCc1ccccc1 | 980 | pKa [1]: 10
CCCCCNC1=NCCN1OCCc1ccccc1 |  | pKa [1]: 9.9; Ki [2]: 10000 nM; Ki [3]: 4900 nM; Effect (Rattus norvegicus): 63%
CCCCC/N=C1/CCCN1CCc1ccccc1 |  | pKa [1]: > 11
CCCCCNC1=NCCN1OCc1ccc(-c2ccccc2)cc1 | 1100 | 
CCCCCNC1=NCCN1OCc1ccc([N+](=O)[O-])cc1 | 1100 | 
OCCNC1=NCCN1OCc1ccccc1 | 2250 | 
C=CCNC1=NCCN1OCc1ccccc1 | 1100 | 
c1ccc(COCCNC2=NCCN2OCc2ccccc2)cc1 | 1500 | 
CCCCCSC1=NCCN1OCc1ccccc1 | 6000 | pKa [1]: 8.5
c1ccc(CCCNC2=NCCN2OCc2ccccc2)cc1 | 750 | 
CC(C)NC1=NCCN1OCc1ccccc1 | 5600 | 
CCCCNC1=NCCCN1OCc1ccccc1 | 750 | pKa [1]: > 12
c1ccc(CCNC2=NCCN2OCc2ccccc2)cc1 | 1100 | 
CCCCCNC1=NCCN1OCc1cccc([N+](=O)[O-])c1 | 530 | 
CCCCCNC1=NCCN1OCc1cccc(OC)c1 | 560 | 
CCCCCNc1nc2ccccc2n1CCc1ccccc1 |  | pKa [1]: 7.4

Continued, in another order:

Ki (Glutamate NMDA receptor) [nM] | Compound | further results
23 | CCCCCNC1=NCCN1OCc1cccc(F)c1 | 
34 | CCCCCNC1=NCCN1OCc1ccccc1C | 
100 | CCCCCNC1=NCCN1OCc1ccc(F)cc1 | 
230 | CCCCCNC1=NCCN1OCc1ccc(C)cc1 | 
60 | CCCCNC1=NCCN1OCc1ccccc1 | 
380 | Oc1ccc(CCNC2=NCCN2OCc2ccccc2)cc1 | 
230 | CCCCCNC1=NCCN1CCc1ccccc1 | pKa [1]: > 12
110 | CCCCCNC1=NCCN1OCc1ccc(OC)cc1 | 
170 | CCCCCNC1=NCCN1OCc1ccc(Cl)cc1 | 
38 | CCCCCNC1=NCCN1OCc1cccc(C)c1 | 
260 | c1ccc(CON2CCN=C2NC2CC2)cc1 | 
380 | c1ccc(CON2CCN=C2NCc2cccnc2)cc1 | 
130 | c1ccc(CNC2=NCCN2OCc2ccccc2)cc1 | 
380 | c1ccc(CCCCNC2=NCCN2OCc2ccccc2)cc1 | 
280 | CCCCCNC1=NCCN1OCc1ccccc1OC | 
15 | CCCCCNC1=NCCN1OCc1ccccc1F | 
75 | CCCCCCNC1=NCCN1OCc1ccccc1 | 
56 | CCCCCNC1=NCCN1OCc1cccs1 | 
38 | CCCCCNC1=NCCN1OCc1ccccc1Cl | 
